Active and inactive are the calls of the source.

Consider three compounds from ChEMBL document CHEMBL1201862, “PubChem BioAssay data set” (2004).

The target in assay [1] is T1, Sentrin-specific protease 8 (Homo sapiens, UniProt Q96LD8).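 Note: luminescence read-out of SENP8 inhibition, dose-response confirmation following an ultra-high-throughput screen.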
T1 sequence (Q96LD8 whole entry): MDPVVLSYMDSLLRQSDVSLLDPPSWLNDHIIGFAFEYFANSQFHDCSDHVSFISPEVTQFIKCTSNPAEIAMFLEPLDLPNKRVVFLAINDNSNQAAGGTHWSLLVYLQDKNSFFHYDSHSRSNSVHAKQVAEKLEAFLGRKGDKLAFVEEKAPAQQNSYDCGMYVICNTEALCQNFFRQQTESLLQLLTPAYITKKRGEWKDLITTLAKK
The class given is functional.

The next assay deals with T2, Streptokinase A (Streptococcus pyogenes serotype M1, UniProt P10520).
T2 sequence (P10520 whole entry): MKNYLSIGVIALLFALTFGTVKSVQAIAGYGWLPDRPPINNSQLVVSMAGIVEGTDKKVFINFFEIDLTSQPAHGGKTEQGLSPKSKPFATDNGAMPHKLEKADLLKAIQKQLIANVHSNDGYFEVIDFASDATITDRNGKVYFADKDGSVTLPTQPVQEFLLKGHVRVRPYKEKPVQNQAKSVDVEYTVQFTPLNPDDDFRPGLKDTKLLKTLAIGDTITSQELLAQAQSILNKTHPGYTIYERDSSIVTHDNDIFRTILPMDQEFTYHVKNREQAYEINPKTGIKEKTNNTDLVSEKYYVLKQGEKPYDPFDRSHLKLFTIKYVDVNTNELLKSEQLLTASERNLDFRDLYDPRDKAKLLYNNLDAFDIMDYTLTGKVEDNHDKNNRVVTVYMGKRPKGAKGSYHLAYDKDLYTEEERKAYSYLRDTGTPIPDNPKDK
In words: viability-normalized secreted streptokinase activity reduction – plasminogen activation absorbance, OD405, dose response (AID 1914).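 Note: secreted streptokinase activity via plasminogen activation per viability signal from cell pellet.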 The class given is functional, Streptococcus pyogenes M1 GAS.

Assay [2] addresses T3, Sentrin-specific protease 7 (Homo sapiens, UniProt Q9BQF6).
T3 sequence (Q9BQF6 whole entry): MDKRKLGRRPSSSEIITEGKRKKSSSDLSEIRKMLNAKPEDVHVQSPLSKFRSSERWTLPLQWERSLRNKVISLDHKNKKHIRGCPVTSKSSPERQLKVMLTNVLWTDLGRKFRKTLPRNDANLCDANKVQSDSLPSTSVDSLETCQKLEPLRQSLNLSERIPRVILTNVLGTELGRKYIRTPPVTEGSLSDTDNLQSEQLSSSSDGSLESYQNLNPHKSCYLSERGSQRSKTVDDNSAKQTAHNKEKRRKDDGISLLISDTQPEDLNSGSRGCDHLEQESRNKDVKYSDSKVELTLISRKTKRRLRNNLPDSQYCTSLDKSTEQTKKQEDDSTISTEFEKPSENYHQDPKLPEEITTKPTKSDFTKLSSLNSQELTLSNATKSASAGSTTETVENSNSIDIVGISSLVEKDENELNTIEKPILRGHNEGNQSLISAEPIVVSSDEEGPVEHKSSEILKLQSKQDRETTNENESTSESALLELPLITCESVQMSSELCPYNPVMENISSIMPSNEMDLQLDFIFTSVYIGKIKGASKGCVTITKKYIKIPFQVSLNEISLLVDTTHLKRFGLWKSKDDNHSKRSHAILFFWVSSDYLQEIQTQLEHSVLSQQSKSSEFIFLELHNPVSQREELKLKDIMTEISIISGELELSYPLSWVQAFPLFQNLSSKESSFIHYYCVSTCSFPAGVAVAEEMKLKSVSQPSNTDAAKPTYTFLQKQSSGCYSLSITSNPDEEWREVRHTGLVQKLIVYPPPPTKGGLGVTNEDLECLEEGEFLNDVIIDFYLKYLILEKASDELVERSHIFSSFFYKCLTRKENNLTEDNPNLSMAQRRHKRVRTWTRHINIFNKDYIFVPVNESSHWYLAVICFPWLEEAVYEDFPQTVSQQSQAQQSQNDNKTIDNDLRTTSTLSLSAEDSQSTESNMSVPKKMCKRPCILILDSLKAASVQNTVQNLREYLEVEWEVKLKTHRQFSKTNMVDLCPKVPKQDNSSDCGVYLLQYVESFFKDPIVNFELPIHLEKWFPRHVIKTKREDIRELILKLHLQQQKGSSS
It is filed as functional.

The target of another assay is T4, Caspase-3 (Homo sapiens, UniProt P42574).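 Note: Dose-response selectivity test against caspase-3 for candidate inhibitors of sentrin-specific proteases (SENPs).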
T4 sequence (P42574 whole entry): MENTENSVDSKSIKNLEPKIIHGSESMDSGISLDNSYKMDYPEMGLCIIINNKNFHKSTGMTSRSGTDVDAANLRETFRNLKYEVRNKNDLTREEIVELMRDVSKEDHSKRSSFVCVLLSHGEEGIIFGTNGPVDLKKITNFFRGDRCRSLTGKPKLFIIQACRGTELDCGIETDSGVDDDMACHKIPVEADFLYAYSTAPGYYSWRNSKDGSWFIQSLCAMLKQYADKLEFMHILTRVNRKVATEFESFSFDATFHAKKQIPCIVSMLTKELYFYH
It is filed as functional.

For a further assay, the system named is Streptococcus. In words: GAS UMAA2166 growth inhibition – luminescence, BacTiterGlo, counter-screen for streptokinase expression inhibitor project, dose response (AID 1915).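 Note: potency for reduction of bacterial viability or growth.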 The class given is functional, organism-based. On the technique in general: The purpose of a counterscreen is to sort out artefacts and off-target activity.
Assay [3] has as its target T5, Sentrin-specific protease 6 (Homo sapiens, UniProt Q9GZR1).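 Note: Luminescence-based dose-response confirmatory assay of SENP6 inhibition, following up an ultra-high-throughput screen.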
T5 sequence (Q9GZR1 whole entry): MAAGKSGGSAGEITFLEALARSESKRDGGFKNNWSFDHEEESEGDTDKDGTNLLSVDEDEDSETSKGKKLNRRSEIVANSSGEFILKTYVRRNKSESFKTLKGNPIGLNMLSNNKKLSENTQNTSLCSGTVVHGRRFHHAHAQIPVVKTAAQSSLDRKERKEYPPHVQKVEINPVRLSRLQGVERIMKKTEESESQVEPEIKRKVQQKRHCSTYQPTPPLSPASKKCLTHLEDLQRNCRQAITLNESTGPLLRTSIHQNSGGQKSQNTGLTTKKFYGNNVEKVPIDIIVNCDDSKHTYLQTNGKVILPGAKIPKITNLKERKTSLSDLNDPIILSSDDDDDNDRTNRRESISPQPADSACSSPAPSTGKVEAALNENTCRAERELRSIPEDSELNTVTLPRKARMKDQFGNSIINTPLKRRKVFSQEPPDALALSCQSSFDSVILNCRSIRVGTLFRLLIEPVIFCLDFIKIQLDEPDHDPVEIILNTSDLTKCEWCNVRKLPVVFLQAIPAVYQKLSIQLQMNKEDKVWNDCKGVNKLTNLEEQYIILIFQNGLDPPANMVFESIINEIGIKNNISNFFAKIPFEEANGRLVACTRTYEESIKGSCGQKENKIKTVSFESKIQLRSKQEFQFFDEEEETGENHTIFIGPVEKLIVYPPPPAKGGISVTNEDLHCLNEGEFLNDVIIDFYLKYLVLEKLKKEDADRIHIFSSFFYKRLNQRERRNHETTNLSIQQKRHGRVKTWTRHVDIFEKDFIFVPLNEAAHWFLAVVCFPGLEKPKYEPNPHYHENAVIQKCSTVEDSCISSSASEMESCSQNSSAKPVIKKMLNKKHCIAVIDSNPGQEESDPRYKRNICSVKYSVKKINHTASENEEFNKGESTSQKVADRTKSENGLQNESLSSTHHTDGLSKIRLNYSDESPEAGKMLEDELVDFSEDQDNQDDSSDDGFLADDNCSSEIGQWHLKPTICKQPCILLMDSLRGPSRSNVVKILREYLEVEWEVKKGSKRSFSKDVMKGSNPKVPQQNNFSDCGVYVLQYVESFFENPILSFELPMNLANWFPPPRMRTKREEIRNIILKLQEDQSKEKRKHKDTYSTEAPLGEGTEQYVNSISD
The class given is functional.

The test system of assay [4] is Streptococcus sp. 'group A'. In words: Streptococcus pyogenes SK(-)GAS viability under kanamycin – luminescence, BacTiterGlo, confirmation, counter-screen for streptokinase expression inhibitor project, dose response (AID 1900). It is filed as functional, organism-based.
In the next assay the test system is HeLa. Put plainly: ATP-based viability loss in HeLa cells – cell-based, CellTiter-Glo luminescence, cherry-pick samples, cytotoxicity control for MITF activator project, dose response (AID 540259). It is filed as functional. The settings on record: Homo sapiens.
Assay [5] deals with T6, Oxysterols receptor LXR-beta (Homo sapiens, UniProt P55055).
T6 sequence (P55055 whole entry): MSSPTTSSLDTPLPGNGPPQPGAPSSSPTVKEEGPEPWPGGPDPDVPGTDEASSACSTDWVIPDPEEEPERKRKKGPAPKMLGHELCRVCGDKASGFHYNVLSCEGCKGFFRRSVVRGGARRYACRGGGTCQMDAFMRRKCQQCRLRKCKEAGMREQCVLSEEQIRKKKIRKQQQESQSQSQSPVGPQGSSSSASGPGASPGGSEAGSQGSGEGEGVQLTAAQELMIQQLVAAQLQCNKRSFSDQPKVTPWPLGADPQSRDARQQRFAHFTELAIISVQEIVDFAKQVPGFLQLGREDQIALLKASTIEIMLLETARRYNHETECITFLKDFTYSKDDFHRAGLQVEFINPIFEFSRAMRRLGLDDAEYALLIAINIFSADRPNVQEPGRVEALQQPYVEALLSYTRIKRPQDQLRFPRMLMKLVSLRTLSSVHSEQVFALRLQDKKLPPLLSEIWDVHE
The class given is functional, cell-based.

Assay [6] can be described thus: Luminescence Cell-Based Dose Confirmation HTS to Identify Activators of 5'UTR Stem-Loop Driven Alpha-Synuclein mRNA Translation in H4 Neuroglioblastoma Cells. [Related pubchem assays: 1829 (Project Summary), 1814 (Primary HTS)]. The class given is functional.
A short description of assay [7]: Luminescence Cell-Based Dose Response HTS to Identify Activators of Luciferase Translation or Activity in H4 […] Cells. [Related pubchem assays: 1829 (Project Summary), 1814 (Primary HTS)]. It is filed as functional.
Another assay concerns H4. Put plainly: Luminescence Cell-Based Dose Response HTS to Identify Activators of 5'UTR Stem-Loop Driven Prion Protein mRNA Translation in H4 Neuroglioblastoma Cells. [Related pubchem assays: 1829 (Project Summary), 1814 (Primary HTS)]. The class given is functional. The note with it: Homo sapiens.
For assay [8], the target named is T7, Insulin-degrading enzyme (Homo sapiens, UniProt P14735).
T7 sequence (P14735 whole entry): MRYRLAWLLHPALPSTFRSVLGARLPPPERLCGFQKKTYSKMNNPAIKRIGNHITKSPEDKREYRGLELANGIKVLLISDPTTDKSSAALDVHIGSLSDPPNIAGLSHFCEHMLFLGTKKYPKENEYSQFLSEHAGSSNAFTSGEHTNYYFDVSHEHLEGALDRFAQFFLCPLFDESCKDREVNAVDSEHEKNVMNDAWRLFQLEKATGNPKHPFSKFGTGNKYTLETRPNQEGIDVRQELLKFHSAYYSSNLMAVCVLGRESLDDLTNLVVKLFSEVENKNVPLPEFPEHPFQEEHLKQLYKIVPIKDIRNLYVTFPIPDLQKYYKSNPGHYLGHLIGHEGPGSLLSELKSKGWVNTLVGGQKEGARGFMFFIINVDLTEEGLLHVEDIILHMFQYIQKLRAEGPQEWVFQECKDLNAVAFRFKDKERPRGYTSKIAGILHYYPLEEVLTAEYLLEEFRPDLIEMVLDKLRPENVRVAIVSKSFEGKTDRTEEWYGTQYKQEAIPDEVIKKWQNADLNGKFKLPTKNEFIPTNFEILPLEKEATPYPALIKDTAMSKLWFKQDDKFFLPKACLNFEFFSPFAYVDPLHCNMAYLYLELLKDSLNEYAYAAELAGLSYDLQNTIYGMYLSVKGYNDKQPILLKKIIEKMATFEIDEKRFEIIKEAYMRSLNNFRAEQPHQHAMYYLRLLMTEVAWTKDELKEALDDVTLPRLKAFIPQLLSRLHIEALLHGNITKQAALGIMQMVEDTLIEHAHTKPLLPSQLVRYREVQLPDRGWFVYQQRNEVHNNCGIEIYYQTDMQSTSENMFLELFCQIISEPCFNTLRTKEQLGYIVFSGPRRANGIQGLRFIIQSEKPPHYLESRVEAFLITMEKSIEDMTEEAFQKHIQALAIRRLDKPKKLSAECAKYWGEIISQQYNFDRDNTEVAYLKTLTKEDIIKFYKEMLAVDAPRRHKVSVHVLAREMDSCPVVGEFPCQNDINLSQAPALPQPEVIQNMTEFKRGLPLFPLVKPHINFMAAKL
In words: cellular IDE activation of Abeta substrate cleavage – fluorescence polarization, HEK cells, dose response (AID 588439). It is filed as functional, cell-based. (In general: In fluorescence polarisation assays a small probe gives low polarisation when free and higher when bound to something large.)

The subject of assay [9] is HEK293. Put plainly: optical interference in Abeta FP readout, dose response, artefact control for IDE activator project, biochemical, fluorescence polarization (AID 588442). It is filed as functional, cell-based. The note with it: Homo sapiens.
In assay [10] the target is T7, Insulin-degrading enzyme. Put plainly: recombinant IDE activation, cell-free – biochemical, fluorescence polarization, counter-screen for IDE activator project, dose response (AID 588681).
In assay [11] the test system is HEK293. In words: membrane integrity loss in HEK cells – cell-based, fluorescence, cytotoxicity control for IDE activator project, dose response (AID 588440).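 Note: cytotoxicity by LDH release measuring loss of membrane integrity.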 It is filed as functional. The settings on record: Homo sapiens.

For orientation: IC50 means the concentration that gives 50% inhibition. Broadly, the EC50 is the concentration needed to bring the measured effect to its halfway point. Broadly, the AC50 is the concentration giving half of the maximal activity seen. As to `Cc1csc2nc(CSc3nc4ccccc4o3)c(Br)n12`, the IC50 in assay [1] is > 100 µM (inactive); in assay [2], 16.2 µM (active); on Caspase-3 it was 49.4 µM (active); in assay [3] it was 12.5 µM (active). Moreover, the EC50 was > 150 µM (not active) at Streptokinase A, > 150 µM (not active) in the assay on Streptococcus and 45.5 µM (active) in assay [4]. In addition, the AC50 in the assay on HeLa is 42.3 µM (active).
On to `Cc1nn(C(=O)c2cccs2)c(N)c1-c1ccccc1`, for which the EC50 is > 67.5 µM (inactive) in assay [5], 13.7 µM (active) in [6], 19 µM (active) in assay [7] and > 120 µM (not active) in the assay on H4. Moreover, the AC50 in the assay on HeLa is 30.1 µM (active).
On to `O=C(NCCSc1ccc(Br)cc1)c1ccc2[nH]cnc2c1`, for which the results for the EC50 on Insulin-degrading enzyme [8], in the assay with HEK293 [9] and at Insulin-degrading enzyme [10] were > 54.7 µM (inactive), > 56 µM (inactive) and > 54.7 µM (inactive), respectively. Further, in the assay with HEK293 [11], the IC50 is > 89.3 µM (inactive).
